# Key:
# KRAS G12D = target: T1, KRAS G12D (Homo sapiens, UniProt P01116, G12D); assay: KRAS G12D HiBit assay; type: cell-based; settings: AsPc-1-KRAS (G12D)-HiBit-KI cell, compound treatment for 24 hours; for DC50: absolute DC50
# T1 construct: AsPc-1-KRAS (G12D)-HiBit-KI cell (Pharmaron); host or cells: AsPc-1-KRAS (G12D)-HiBit-KI cells (HiBiT knock-in at the endogenous KRAS locus)
# Summary of the method: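 Cells were treated for 24 h with compounds in a 3-fold, 10-point dilution series from a 0.3 mM DMSO stock, then equilibrated 15 min at room temperature. KRAS G12D HiBiT levels were read by luminescence after lytic Nano-Glo HiBiT reagent with LgBiT; inhibition calculated relative to 0.1% DMSO high control.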
# KRAS G12V = target: T2, KRAS G12V (Homo sapiens, UniProt P01116, G12V); assay: KRAS G12V HiBit assay; type: cell-based; settings: SW620-KRAS (G12V)-HiBit-KI cells, compound treatment for 24 hours, class symbols
# T2 construct: SW620-KRAS (G12V)-HiBit-KI cell (Pharmaron); host or cells: SW620-KRAS (G12V)-HiBit-KI cells (HiBiT knock-in at the endogenous KRAS locus)
# T2 sequence (P01116 1-188 isoform P01116-2 G12V): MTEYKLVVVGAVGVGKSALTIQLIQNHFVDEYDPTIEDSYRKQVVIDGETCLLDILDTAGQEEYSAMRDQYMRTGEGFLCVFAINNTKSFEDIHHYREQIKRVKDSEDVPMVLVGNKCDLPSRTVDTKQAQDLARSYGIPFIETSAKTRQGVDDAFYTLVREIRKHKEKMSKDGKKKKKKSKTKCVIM
# Summary of the method: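 HiBiT-tagged KRAS G12V cells treated 24 h with compound in a 3-fold, 10-point series (0.3 mM DMSO stock); lytic HiBiT reagent with LgBiT added after 15 min room-temperature equilibration. Degradation calculated against 0.1% DMSO high control.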
# [1] = numeric bounds given in place of class symbols
# T1 sequence (P01116 1-188 isoform P01116-2 G12D): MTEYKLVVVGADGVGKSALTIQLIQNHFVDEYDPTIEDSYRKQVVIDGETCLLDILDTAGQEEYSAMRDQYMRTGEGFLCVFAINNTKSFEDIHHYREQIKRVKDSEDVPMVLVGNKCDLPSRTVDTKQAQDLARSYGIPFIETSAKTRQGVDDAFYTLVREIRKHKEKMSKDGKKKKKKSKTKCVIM
SMILES,DC50 (KRAS G12D; class symbols) [nM],DC50 (KRAS G12V) [nM],Dmax (KRAS G12D; class symbols) [%],DC50 (KRAS G12D; [1]) [nM]
C#Cc1c(F)ccc2cc(O)cc(-c3ncc4c(N5CCC[C@@](C)(O)C5)nc(OCC5(CN6CCC(CN7CCN(c8ccc9c(c8)n(C)c(=O)n9C8CCC(=O)NC8=O)CC7)CC6)CC5)nc4c3F)c12 (some centres unmarked) [Compound 25],< 100,< 10,,
"CCc1c(F)ccc2cccc(-c3ncc4c(N5CCC[C@@](C)(O)C5)nc(OC[C@@]56CCCN5[C@H](COC(=O)NCCOCCOCCOc5ccc7c(c5)n(C)c(=O)n7C5CCC(=O)NC5=O)CC6)nc4c3F)c12 (stereo partly drawn) [Compound 104, ((3S,7aS)-7a-(((7-(8-ethyl-7-fluoronaphthalen-1-yl)-8-fluoro-4-((R)-3-hydroxy-3-methylpiperidin-1-yl)pyrido[4,3-d]pyrimidin-2-yl)oxy)methyl)hexahydro-1H-pyrrolizin-3-yl)methyl (2-(2-(2-((1-(2,6-dioxopiperidin-3-yl)-3-methyl-2-oxo-2,3-dihydro-1H-benzo[d]imidazol-5-yl)oxy)ethoxy)ethoxy)ethyl) carbamate]",> 300,> 100,15 to 50,
"CCc1c(F)ccc2cc(O)cc(-c3ncc4c(N5CCC[C@@](C)(O)C5)nc(OC[C@@]56CCCN5[C@H](COc5ccc(CCN7CCC(c8ccc9c(c8)n(C)c(=O)n9C8CCC(=O)NC8=O)CC7)cc5)CC6)nc4c3F)c12 (stereo partly drawn) [Compound 499, 3-(5-(1-(4-(((3S,7aS)-7a-(((7-(8-Ethyl-7-fluoro-3-hydroxynaphthalen-1-yl)-8-fluoro-4-((R)-3-hydroxy-3-methylpiperidin-1-yl)pyrido[4,3-d]pyrimidin-2-yl)oxy)methyl)hexahydro-1H-pyrrolizin-3-yl)methoxy)phenethyl)piperidin-4-yl)-3-methyl-2-oxo-2,3-dihydro-1H-benzo[d]imidazol-1-yl) piperidine-2,6-dione]",< 100,10 to 100,,
"CCc1c(F)ccc2cc(O)cc(-c3ncc4c(N5CCC[C@@](C)(O)C5)cc(OC[C@@]56CCCN5[C@H](COC(=O)N5CCC(CN7CCC(c8ccc9c(c8)n(C)c(=O)n9C8CCC(=O)NC8=O)CC7)CC5)CC6)nc4c3F)c12 (stereo partly drawn) [Compound 492, ((3S,7aS)-7a-(((7-(8-ethyl-7-fluoro-3-hydroxynaphthalen-1-yl)-8-fluoro-4-((R)-3-hydroxy-3-methylpiperidin-1-yl)-1,6-naphthyridin-2-yl)oxy)methyl)hexahydro-1H-pyrrolizin-3-yl)methyl 4-((4-(1-(2,6-dioxopiperidin-3-yl)-3-methyl-2-oxo-2,3-dihydro-1H-benzo[d]imidazol-5-yl)piperidin-1-yl)methyl)piperidine-1-carboxylate]",< 100,> 100,,
"CCc1c(F)ccc2cc(O)cc(-c3ncc4c(N5CCC[C@@](C)(O)C5)nc(OC[C@@]56CCCN5[C@H](COC(=O)N5CC7CC(C5)C7CN5CCC(c7ccc8c(c7)n(C)c(=O)n8C7CCC(=O)NC7=O)CC5)CC6)nc4c3F)c12 (stereo partly drawn) [Compound 400, ((3S,7aS)-7a-(((7-(8-ethyl-7-fluoro-3-hydroxynaphthalen-1-yl)-8-fluoro-4-((R)-3-hydroxy-3-methylpiperidin-1-yl)pyrido[4,3-d]pyrimidin-2-yl)oxy)methyl)hexahydro-1H-pyrrolizin-3-yl)methyl 6-((4-(1-(2,6-dioxopiperidin-3-yl)-3-methyl-2-oxo-2,3-dihydro-1H-benzo[d]imidazol-5-yl)piperidin-1-yl)methyl)-3-azabicyclo[3.1.1]heptane-3-carboxylate]",< 100,< 10,,
"C[C@H]1CN(CC(=O)N2CCC(CN3CCC(c4ccc5c(c4)n(C)c(=O)n5C4CCC(=O)NC4=O)CC3)CC2)CCCN1c1nccc(-c2noc([C@@]3(C)CCCc4sc(N)c(C#N)c43)n2)n1 (stereo partly drawn) [Compound 210, (4S)-2-amino-4-(3-{2-[(2S)-4-{2-[4-({4-[1-(2,6-dioxopiperidin-3-yl)-3-methyl-2-oxo-1,3-benzodiazol-5-yl]piperidin-1-yl}methyl)piperidin-1-yl]-2-oxoethyl}-2-methyl-1,4-diazepan-1-yl]pyrimidin-4-yl}-1,2,4-oxadiazol-5-yl)-4-methyl-6,7-dihydro-5H-1-benzothiophene-3-carbonitrile]",> 300,> 100,15 to 50,
"C#Cc1c(F)ccc2cc(O)cc(-c3ncc4c(N5CCOCC5)nc(OCC5(CN6CCN(CC7CCN(c8ccc9c(c8)n(C)c(=O)n9C8CCC(=O)NC8=O)CC7)CC6)CC5)nc4c3F)c12 (centres unmarked) [Compound 18, 3-[5-[4-[[4-[[1-[[7-(8-Ethynyl-7-fluoro-3-hydroxy-1-naphthyl)-8-fluoro-4-morpholino-pyrido[4,3-d]pyrimidin-2-yl]oxymethyl]cyclopropyl]methyl]piperazin-1-yl]methyl]-1-piperidyl]-3-methyl-2-oxo-benzimidazol-1-yl]piperidine-2,6-dione]",> 300,> 100,15 to 50,
C#Cc1c(F)ccc2cccc(-c3ncc4c(N5CCC[C@@](C)(O)C5)nc(OC[C@@]56CCCN5[C@H](COC(=O)N5CCC(COC7CN(c8ccc9c(c8)n(C)c(=O)n9C8CCC(=O)NC8=O)C7)CC5)CC6)nc4c3F)c12 (some centres unmarked) [Compound 153],,> 100,,> 100
C#Cc1c(F)ccc2cccc(-c3ncc4c(N5CCC[C@@](C)(O)C5)nc(OCC5(CN6CCC(CN7CCC(c8cccc9c8n(C)c(=O)n9C8CCC(=O)NC8=O)CC7)CC6)CC5)nc4c3F)c12 (some centres unmarked) [Compound 60],< 100,> 100,,
C#Cc1c(F)ccc2cc(O)cc(-c3ncc4c(N5CCC[C@@](C)(O)C5)nc(OCC5(CN6CCC(CN7CCC(c8ccc9c(c8)n(C)c(=O)n9C8CCC(=O)NC8=O)CC7)CC6)CC5)nc4c3F)c12 (some centres unmarked) [Compound 47],< 100,> 100,,
C#Cc1c(F)ccc2cccc(-c3ncc4c(N5CCC[C@@](C)(O)C5)nc(OCC5(CN6CCC(CN7CCN(c8ccc9c(c8)C(=O)N(C8CCC(=O)NC8=O)C9=O)CC7)CC6)CC5)nc4c3F)c12 (some centres unmarked) [Compound 49],,> 100,,> 160
"CCc1c(F)ccc2cc(O)cc(-c3ncc4c(N5CCC[C@@](C)(O)C5)nc(OC[C@@]56CCCN5[C@H](COC(=O)c5ccc(N7CCC(c8ccc9c(c8)n(C)c(=O)n9C8CCC(=O)NC8=O)CC7)cc5)CC6)nc4c3F)c12 (stereo partly drawn) [Compound 495, ((3S,7aS)-7a-(((7-(8-ethyl-7-fluoro-3-hydroxynaphthalen-1-yl)-8-fluoro-4-((R)-3-hydroxy-3-methylpiperidin-1-yl)pyrido[4,3-d]pyrimidin-2-yl)oxy)methyl)hexahydro-1H-pyrrolizin-3-yl)methyl 4-(4-(1-(2,6-dioxopiperidin-3-yl)-3-methyl-2-oxo-2,3-dihydro-1H-benzo[d]imidazol-5-yl)piperidin-1-yl)benzoate]",< 100,10 to 100,,
"CCc1c(F)ccc2cc(O)cc(-c3ncc4c(N5CCC[C@@](C)(O)C5)nc(OC[C@@]56CCCN5[C@H](COC(=O)N5CCC(N7CC8(CCN(c9ccc%10c(c9)n(C)c(=O)n%10C9CCC(=O)NC9=O)CC8)C7)CC5)CC6)nc4c3F)c12 (stereo partly drawn) [Compound 362, ((3S,7aS)-7a-(((7-(8-ethyl-7-fluoro-3-hydroxynaphthalen-1-yl)-8-fluoro-4-((R)-3-hydroxy-3-methylpiperidin-1-yl)pyrido[4,3-d]pyrimidin-2-yl)oxy)methyl)hexahydro-1H-pyrrolizin-3-yl)methyl 4-(7-(1-(2,6-dioxopiperidin-3-yl)-3-methyl-2-oxo-2,3-dihydro-1H-benzo[d]imidazol-5-yl)-2,7-diazaspiro[3.5]nonan-2-yl)piperidine-1-carboxylate]",< 100,< 10,,
"C#Cc1c(F)ccc2cc(O)cc(-c3ncc4c(N5CCC[C@@](C)(O)C5)nc(OC[C@@]56CCCN5[C@H](COC(=O)N5CCN(CC#CCOc7cccc8c7n(C)c(=O)n8C7CCC(=O)NC7=O)CC5)CC6)nc4c3F)c12 (stereo partly drawn) [Compound 376, ((3S,7aS)-7a-(((7-(8-ethynyl-7-fluoro-3-hydroxynaphthalen-1-yl)-8-fluoro-4-((R)-3-hydroxy-3-methylpiperidin-1-yl)pyrido[4,3-d]pyrimidin-2-yl)oxy)methyl)hexahydro-1H-pyrrolizin-3-yl)methyl 4-(4-((1-(2,6-dioxopiperidin-3-yl)-3-methyl-2-oxo-2,3-dihydro-1H-benzo[d]imidazol-4-yl)oxy)but-2-yn-1-yl)piperazine-1-carboxylate]",,> 100,,> 100
"C#Cc1c(F)ccc2cccc(-c3ncc4c(N5CCC[C@@](C)(O)C5)nc(OC[C@@]56CCCN5[C@H](COC(=O)N5CC(OCC7CCN(c8ccc9c(c8)n(C)c(=O)n9C8CCC(=O)NC8=O)CC7)C5)CC6)nc4c3F)c12 (stereo partly drawn) [Compound 130, ((3S,7aS)-7a-(((7-(8-Ethynyl-7-fluoronaphthalen-1-yl)-8-fluoro-4-((R)-3-hydroxy-3-methylpiperidin-1-yl)pyrido[4,3-d]pyrimidin-2-yl)oxy)methyl)hexahydro-1H-pyrrolizin-3-yl)methyl 3-((1-(1-(2,6-dioxopiperidin-3-yl)-3-methyl-2-oxo-2,3-dihydro-1H-benzo[d]imidazol-5-yl)piperidin-4-yl)methoxy) azetidine-1-carboxylate]",> 300,> 100,,
Cn1c(=O)n(C2CCC(=O)NC2=O)c2ccc(C3CCN(CC4CCN(C(=O)CN5CCN(c6nccc(-c7noc([C@@]8(C)CCCc9sc(N)c(C#N)c98)n7)n6)CC5)CC4)CC3)cc21 (some centres unmarked) [Compound 224],> 300,> 100,,

# — patent publication US12599672B2, “KRAS proteolysis targeting chimeras” (PAQ Therapeutics Inc., priority 2023, dated 2026)
